Laboratory results as given in patent US11332459B2 (TEIJIN PHARMA LIMITED, priority 2017, dated 2022).
Structures can show the parent of a compound that is named as a salt.

Molecular target: T1, human TRPC6 (Homo sapiens, UniProt Q9Y210)
T1 construct: expressed in transfected cells
T1 sequence (Q9Y210 1-931): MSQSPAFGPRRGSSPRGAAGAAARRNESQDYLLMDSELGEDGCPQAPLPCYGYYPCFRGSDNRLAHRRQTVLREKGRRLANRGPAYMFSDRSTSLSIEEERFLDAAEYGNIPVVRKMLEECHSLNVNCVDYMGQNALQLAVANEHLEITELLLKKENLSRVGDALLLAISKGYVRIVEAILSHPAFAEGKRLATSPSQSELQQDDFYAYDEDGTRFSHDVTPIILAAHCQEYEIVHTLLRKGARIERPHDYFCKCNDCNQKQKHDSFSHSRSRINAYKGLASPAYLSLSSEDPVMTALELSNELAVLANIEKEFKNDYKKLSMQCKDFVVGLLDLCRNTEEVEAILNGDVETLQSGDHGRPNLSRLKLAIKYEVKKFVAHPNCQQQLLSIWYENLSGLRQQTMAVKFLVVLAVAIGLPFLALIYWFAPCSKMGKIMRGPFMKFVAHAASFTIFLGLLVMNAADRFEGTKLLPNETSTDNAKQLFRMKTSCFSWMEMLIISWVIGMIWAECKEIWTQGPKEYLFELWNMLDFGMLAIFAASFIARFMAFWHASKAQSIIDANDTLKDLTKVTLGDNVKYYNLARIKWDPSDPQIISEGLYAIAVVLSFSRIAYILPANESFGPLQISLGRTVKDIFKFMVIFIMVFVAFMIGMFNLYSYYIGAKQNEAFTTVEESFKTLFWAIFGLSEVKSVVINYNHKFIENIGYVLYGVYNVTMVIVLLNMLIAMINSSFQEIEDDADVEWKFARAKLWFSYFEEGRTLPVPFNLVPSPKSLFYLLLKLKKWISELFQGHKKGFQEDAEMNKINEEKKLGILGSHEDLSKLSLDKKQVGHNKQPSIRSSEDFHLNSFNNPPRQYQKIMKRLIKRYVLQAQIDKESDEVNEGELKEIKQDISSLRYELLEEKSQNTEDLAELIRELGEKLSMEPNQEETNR
Test: TRPC6 calcium flux assay (FLIPR, OAG-stimulated calcium influx)
Assay type: cell-based
Details: HEK293 cells stably transfected with human TRPC6, read-out: hTRPC6 Potency
Summary of the method: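 HEK293 cells stably expressing human TRPC6, loaded with calcium dye 90–120 min at RT, then given compound for 25 min before OAG (50 uM final, 0.5% DMSO) in HEPES buffer pH 7.2 with 2 mM CaCl2. Background-subtracted FLIPR peak over 180 s normalized to OAG vs buffer; IC50 from dose plot.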

For `N#Cc1cc(F)cc2c1nc(N1CC[C@H](F)[C@H](N)C1)n2Cc1ncc(F)cn1` [Example 36, 2-((3R,4S)-3-amino-4-fluoropiperidin-1-yl)-6-fluoro-1-((5-fluoropyrimidin-2-yl)methyl)-1H-benzo[d]imidazole-4-carbonitrile], the IC50 was 0.00613 µM.

With `N[C@@H]1CN(c2nc3cc(F)c(F)cc3n2CC(=O)N2CCC(C(=O)N3CCCCCC3)CC2)CC[C@H]1F` [Example 537, 2-(2-((3R,4R)-3-amino-4-fluoropiperidin-1-yl)-5,6-difluoro-1H-benzo[d]imidazol-1-yl)-1-(4-(azepane-1-carbonyl)piperidin-1-yl)ethan-1-one] the IC50 was greater than 1.75 µM.

For `C[C@H](c1ccc(OC(F)(F)F)cc1)n1c(N2CC[C@@H](F)[C@H](N)C2)nc2cc(F)c(F)cc21` [Example 337, (3R,4R)-1-(5,6-difluoro-1-((1R)-1-(4-(trifluoromethoxy)phenyl)ethyl)-1H-benzimidazol-2-yl)-4-fluoro-3-piperidinamine], the IC50 was greater than 3.75 µM.

With `NC(=O)C1CCCCN1C(=O)Cn1c(N2CC[C@@H](F)[C@H](N)C2)nc2cc(F)c(F)cc21` (some centres unmarked) [Example 521] the IC50 was 0.757 µM.

`N[C@@H]1CN(c2nc3cc(F)c(F)cc3n2CC(=O)N2CCCC2)CC[C@H]1F` [Example 277, 2-(2-((3R,4R)-3-amino-4-fluoro-1-piperidinyl)-5,6-difluoro-1H-benzimidazol-1-yl)-1-(1-pyrrolidinyl)ethanone] showed an IC50 of 0.00049 µM.

`CN[C@H]1CCCN(c2nc3ccccc3n2[C@@H](C)c2ccc(C#N)cn2)C1` [Example 256, 6-((1S)-1-(2-((3S)-3-(methylamino)-1-piperidinyl)-1H-benzimidazol-1-yl)ethyl)-3-pyridinecarbonitrile] was tested, and the IC50 was 0.0194 µM.

Compound `N[C@@H]1CN(c2nc3ccc(F)cc3n2Cc2ncc(Cl)cn2)CC[C@H]1O` (single isomer, unassigned) [Example 496] has an IC50 of 0.0611 µM.

`N[C@@H]1CN(c2nc3cc(F)c(F)cc3n2Cc2cc(Cl)ccc2OC(F)(F)F)CC[C@H]1F` [Example 338, (3R,4R)-1-(1-(5-chloro-2-2-(trifluoromethoxy)benzyl)-5,6-difluoro-1H-benzimidazol-2-yl)-4-fluoro-3-piperidinamine] gave an IC50 greater than 3.75 µM.

Compound `C[C@@H](c1ccccc1Cl)n1c(N2CC[C@@H](F)[C@H](N)C2)nc2cc(F)c(F)cc21` [Example 325, (3R,4R)-1-(1-((1S)-1-(2-chlorophenyl)ethyl)-5,6-difluoro-1H-benzimidazol-2-yl)-4-fluoro-3-piperidinamine] has an IC50 of 0.743 µM.

`Cc1ccc2nc(N3CC[C@@H](F)[C@H](N)C3)n(Cc3ccc(C#N)cn3)c2c1` [Example 111, 6-((2-((3R,4R)-3-amino-4-fluoro-1-piperidinyl)-6-methyl-1H-benzimidazol-1-yl)methyl)-3-pyridinecarbonitrile] showed an IC50 of 0.000788 µM.

With `Cc1cc(Cn2c(N3CC[C@@H](F)[C@H](N)C3)nc3cc(F)c(F)cc32)on1` [Example 579, (3R,4R)-1-(5,6-difluoro-1-((3-methylisoxazol-5-yl)methyl)-1H-benzo[d]imidazol-2-yl)-4-fluoropiperidin-3-amine] the IC50 was 0.312 µM.

For `NC(=O)c1cnc(Cn2c(N3CC[C@H](F)[C@H](N)C3)nc3cc(C(F)(F)F)ccc32)cn1` [Example 123, 5-((2-((3R,4S)-3-amino-4-fluoro-1-piperidinyl)-5-(trifluoromethyl)-1H-benzimidazol-1-yl)methyl)-2-pyrazinecarboxamide], the IC50 was 0.252 µM.

`C[C@H](c1ccc(C#N)cc1)n1c(N2CC[C@H](F)[C@H](N)C2)nc2ccccc21` [Example 317, 4-((R)-1-(2-((3R,4S)-3-amino-4-fluoropiperidin-1-yl)-1H-benzo[d]imidazol-1-yl)ethyl)benzonitrile hydrochloride] was tested, and the IC50 was 1.36 µM.

Work on `N#Cc1ccc(Cn2c(N3CC[C@@H](F)[C@H](N)C3)nc3ccc(C#N)cc32)nc1` [Example 53, 2-((3R,4R)-3-amino-4-fluoropiperidin-1-yl)-1-((5-cyanopyridin-2-yl)methyl)-1H-benzo[d]imidazole-6-carbonitrile] yielded an IC50 of 0.00152 µM.
